These results are taken from patent US12533425B2, “Methods and systems using peptides for targeting and mapping human nerves in image guided surgery, diagnostics and therapeutic delivery” (ALUME BIOSCIENCES, INC., priority 2019, dated 2026).

In one data set the test system is sciatic nerve. The data set is described as follows: In-vivo fluorescence imaging of sciatic nerve in mice after i.v. injection of FAM-labelled peptides. More on the design: species or system mouse. To be noted: 450 nmols i.v.
The test system of a further data set is human sural nerve. The data set is described as follows: Topical application of FAM-labelled peptides on sections of human sural nerve and temporalis muscle. The class given is binding. An excerpt:
To determine the affinity of phage selected peptides for binding to human nerve they were chemically synthesized by solid-phase synthesis and labeled with fluorescein at the C-terminus via a GGC linker. Peptides were topically applied to sectioned human sural nerve and human temporalis muscle to determine nerve to muscle contrast. […] To confirm binding and contrast of HNP401 for additional nerve types binding was compared in nerve and muscle with both HNP401 and NP41 on facial brachial plexus nerve (FIG. 9). […] FAM-HNP401 was additionally tested topically on ex-vivo tissue for labeling of mouse facial nerve with surrounding muscle (FIG. 10, J-M).
To test the affinity of selected phage display peptides for binding to human nerves, they were chemically synthesized by solid-phase synthesis and labeled with fluorescein at the C-terminus. Peptides were topically applied to sections of surgically harvested human sural nerve and temporalis muscle to determine nerve to muscle contrast for selected peptides and controls (FIG. 23). […] To quantify differential binding to nerve versus muscle, fluorescence signal intensity was measured for ROIs from the perineurium of select nerves and human temporalis muscle.
To enhance and attempt to determine the core binding domain of HNP401, systematic deletion of two amino acids from the C or N terminus was performed (see, for example, FIG. 30) followed by binding analysis on human sural nerve sections (FIG. 20). In each case nerve binding and signal intensity was normalized to the parent FAM-HNP401 peptide (FIG. 20J).
Image J was used to analyze and compare images acquired using the confocal microscope and the Lumar dissecting scope. For each experimental set where probes were compared, we kept the acquisition parameters identical so as to directly compare the data obtained. […] All raw image files for a given experimental cohort were loaded at the same time into Image J as 16-bit tiff images. We then levelled the image for tissue treated with FAM-HNP401. Once these levels were set, the settings are propagated to all images in one step using Image J. The brightest image is set as the benchmark for all other images in the cohort to avoid saturating when the leveling is propagated.

Data set [1] is described as follows: Stability of peptides in ex-vivo human plasma (LC-MS). Conditions: 37° C., 5 min vs 2 hours. The method, then:
FIGS. 28A-28F: Stability of peptides in ex-vivo human plasma and cerebrospinal fluid from rats. […] An equal volume of 1:1 acetonitrile:water with 2% acetic acid is added to precipitate the protein matter, supernatant is extracted for analysis by LC-MS on a C18 reverse phase column with gradient of 9:1 H2O+0.05% TFA:Acetonitrile+0.05% TFA to 1:9 H2O+0.05% TFA:Acetonitrile+0.05% TFA in 20 min.
The bladder was drained with a syringe and sutured to avoid spillage and contamination around prostate. […] Stability of FAM-HNP401 in human plasma at 5 minutes and 2 hours was determined by incubation of peptide dye conjugate in human serum prior to analysis by mass spectrometry.

Data set [2] has as its system autonomic nerves isolated from human prostate glands. Briefly: Topical application on sections of nerves from human prostate gland. It counts as binding. Conditions: topical 100 μM, 10 μm sections, two patients. As to the method: FAM-HNP401 and FAM-NP41 were then tested topically for binding to autonomic nerves, isolated from excised prostate glands of two human patients (FIGS. 12 and 13). […] Labelled fiber were confirmed as nerve using anti-neurofilament antibody SMI312 (red) and DAPI (blue) to show nuclear labeling (FIG. 12C). H&E staining was also done to confirm label tissue as nerve (FIG. 12D). Similar staining was obtained for peripheral sensory anti-brachial cutaneous nerve isolated from a human arm (FIG. 12E-H).
FAM-HNP401 and FAM-NP41 were tested for binding to autonomic nerves, isolated from the prostate glands of two human patients (FIGS. 19 and 29). […] Quantitation was not done because only 2 patient samples were available for testing as nerve resection during radical prostatectomy is only performed in instances of gross capsular invasion. Labelled fibers were confirmed as nerve using anti-neurofilament antibody SMI312 (red) with DAPI (blue) to show nuclear labeling (FIG. 19C). H&E staining also confirmed label tissue as nerve by histology (FIG. 19D). […] Similar staining using FAM-HNP401 was obtained for another sensory nerve (anti-brachial cutaneous) isolated from human arm showing the broad nerve binding activity of HNP401 (FIGS. 19E-H).

The subject of a further data set is mouse facial nerve. Briefly: Topical application on ex-vivo mouse facial nerve with surrounding muscle. It counts as binding. To be noted: topical 375 and 100 μM, ex-vivo tissue.
In data set [3] the test system is rat prostate cavernosal nerve. Briefly: In-vivo labelling of rat prostate and sciatic nerve. To be noted: i.v., FAM-labelled peptide. As to the method: FIG. 6: Fluorescent labeling of rat prostate cavernosal nerve in live rats.
Either 150 or 450 nmoles nmoles of fluorescein labeled synthetic peptides were injected intravenously into mice. After a 2 hour waiting period for washout of nonspecific binding, mice were anesthetized and skin incisions were made over the dorsal surface of the hind legs to expose the sciatic nerve. Brightfield and fluorescent images were obtained with a dissecting microscope using Metamorph software (FIG. 1). Quantitation of fluorescence of nerves and adjacent non-nerve tissue was performed with Image J (FIG. 2). Peptides were also topically applied to human nerve sections. […]
Following anesthesia with intra-peritoneal injection of ketamine (80 mg/kg) and midazolam (40 mg/kg), FAM-NP41 or its variants were administered into mice retro-orbitally. […] The autonomic nerve along the cavernosal vessel in the prostate was imaged and recorded using a custom-made surgical imaging system. This system is a modified from Olympus MVX10 scope capable of hi-resolution fluorescence, RGB reflectance and realtime overlay with zoom from 0.6 to 5.7 cm field of view. ImageJ was used for quantitative analysis of nerve contrast for each peptide dye conjugate tested. Images of autonomic nerve in prostate were selected from the recorded files and magnified 300-400% prior to selection of ROI and measurement. […]

A short description of data set [4]: Mass spectroscopy analysis of urine after injection of nerve binding peptides.
In data set [5] the test system is human laryngeal nerve sections. Briefly: Dose response of FAM-HNP401 by topical application on human nerve sections, confocal. To be noted: low concentration (10 μM).
Experimental: Determination of optimal dose response by topical application of FAM-HNP401 on human laryngeal nerve sections at final concentration of 375 μM (A), 100 μM (B), 50 μM (C), 10 μM (D) and 1 μM (E), imaged with confocal microscopy with identical parameters and levelled equally for comparison. **brightened 2 fold for viewing.
Dose response data set of FAM-HNP401 on human nerve tissue (FIGS. 25:A-E) was acquired with 488 nm laser line, 10 μm sections on glass at 10× magnification, 0.45 NA air objective lens. Gain set to 40, power set to 3% of laser power, pixel dwell value of 1.2 μs, aperture size of 1.1 μm and a pixel size of 0.3 μm/px with a 2 k by 2 k size image.
Human peripheral nerves (typically sural) were obtained from patients undergoing nerve resection procedures. Human nerves from prostate gland of two patients were acquired under Moores Cancer Centre Biorepository IRB protocol number 090401. Tissue were sectioned and mounted on glass slides or Cryojane tape. Tissue sections were placed in a humidifier chamber for 30 min before application of the peptide solution. Peptides were diluted to appropriate concentration in 0.5×HBSS prior to topical application. 50 μl of peptide solution of with known concentration (1 μM to 375 μM) were applied to 10 μm nerve sections on tape or slides and incubated for 30 minutes in a humidifier chamber. After incubation with peptide nerve sections were washed with twice with 0.5×HBSS and once with 1×PBS. A cover-slip was applied and slides were imaged immediately on either a Zeiss Lumar dissecting scope of Nikon A1 confocal microscope. For confocal imaging tissue sections of 10 μm thickness were imaged with 488 nm laser excitation 515 (25) and a 10× air objective and a 0.26 µm/pixel size.

Entries after “also recorded” stand apart in the source; their conditions may differ. Residues, ends and D or L forms follow the SMILES beside them. *: point of attachment. Fluorescein(5-Mal) = O=C1OC2(c3ccc(O)cc3Oc3cc(O)ccc32)c2ccc(N3C(=O)CC(*)C3=O)cc21

As to `CC(=O)N[C@@H](CO)C(=O)NCC(=O)N[C@@H](CCC(N)=O)C(=O)N[C@H](C(=O)N1CCC[C@H]1C(=O)N[C@@H](Cc1c[nH]c2ccccc12)C(=O)N[C@@H](CCC(=O)O)C(=O)N[C@@H](CCC(=O)O)C(=O)N1CCC[C@H]1C(=O)N[C@@H](Cc1ccc(O)cc1)C(=O)N[C@@H](Cc1ccc(O)cc1)C(=O)N[C@H](C(=O)N[C@H](C(=O)N[C@@H](CCCCN)C(=O)N[C@@H](CCCCN)C(=O)N[C@@H](CO)C(=O)N[C@@H](CO)C(=O)NCC(=O)NCC(=O)N[C@@H](CSC1CC(=O)N(c2ccc3c(c2)C(=O)OC32c3ccc(O)cc3Oc3cc(O)ccc32)C1=O)C(N)=O)C(C)C)C(C)C)C(C)C` (stereo partly shown) [FAM-HNP401] (Ac-SGQVPWEEPYYVVKKSSGGC(Fluorescein(5-Mal))-NH2), the “nerve to surrounding muscle contrast” value in the data set on sciatic nerve (imaged 2 h post injection, SKH1 mice) is on record as 5.79±0.81. In addition, in the data set on sciatic nerve (mice), the “increase in sciatic nerve fluorescence intensity compared to NP41” value was found to be 2.3 fold. In the data set with sciatic nerve (mice), the “signal intensity for in-vivo binding to mouse sciatic nerve compared to FAM-NP41” value came out at 2.3 ×. Further, in the data set on human sural nerve (human sural nerve vs temporalis muscle, topical 100 μM, n=4), the “nerve to muscle contrast” value was 3.03±0.57. Moreover, the “fluorescent signal intensity of perineurium” value in the data set on human sural nerve (topical 100 μM, 10 μm unfixed sections, confocal, n=4) is given as 1374.44±425.96. Also, the “nerve binding and nerve to muscle contrast (words)” value in the data set with human sural nerve (topical 100 μM, human nerve and temporalis muscle sections) is “highest contrast”. For the same molecule, the “fluorescent signal intensity compared to FAM-NP41” value in the data set with human sural nerve (topical 100 μM, human sural nerve) was 10.9 ×. Also, the “signal for binding human nerve compared to FAM-NP41” value in the data set on human sural nerve (topical, human nerve) was found to be 10 fold. The “stability in human plasma” value in data set [1] is on record as “remain intact; also recorded: stable”. The “fluorescent signal in human autonomic (cavernosal) nerves compared to FAM-NP41” value in data set [2] is reported as “significantly higher fluorescent signal”. Moreover, the “labeling of mouse facial nerve versus surrounding muscle” value in the data set on mouse facial nerve is recorded as “poor contrast; also recorded: did not perform as well as FAM-NP41”. In addition, in data set [3], the “fluorescent labeling of rat prostate and sciatic nerve in live rats” value is “highlighted”. The “metabolism of peptide detected in urine” value in data set [4] is “partially metabolized”. Also, the “structures of nerve bound (confocal imaging)” value was “binding of peptide to non-axonal structural components of nerve; also recorded: excluded from axons” in data set [5]; “does not bind axons, but preferentially binds the perineurium” in data set [5] (listed as FAM-HMP401); “binds epineurium, perineurium and endonerium but not axons” in data set [5] (listed as HNP401-FAM).
